Columns and labels:
LNCaP = experiment: cells; conditions: Homo sapiens, 144 h
Description: Growth inhibition of human LNCAP cells after 6 days

[1] = molecular target: Lysine-specific histone demethylase 1A (Homo sapiens, UniProt O60341)
Description: Inhibition of human recombinant His-tagged full length LSD1 expressed in Escherichia coli BL21 (DE3) assessed as inactivation constant preincubated for 20 mins with substrate measured after 30 mins by AmplexRed based fluorescence quenching assay

Structure (SMILES)	IC50 (LNCaP) [µM]	Ki [1] [µM]
N[C@@H]1C[C@H]1c1ccc(Br)cc1	111	
N[C@@H]1C[C@H]1c1ccc(-c2ccccc2)cc1	110	
COc1ccc([C@@H]2C[C@H]2N)cc1	1710	
N[C@@H]1C[C@H]1c1cccc(Br)c1	129	
N[C@@H]1C[C@H]1c1ccccc1-c1ccccc1	181	> 100
N[C@@H]1C[C@H]1c1cccc(-c2ccccc2)c1	226	> 100
N[C@@H]1C[C@H]1c1ccccc1Br	5870	

Source: ChEMBL document CHEMBL1795241 (Bioorg Med Chem, 2011)
